# Measurements taken from patent US8809341B2, “2,4-pyrimidinediamine compounds and uses as anti-proliferative agents” (Rigel Pharmaceuticals, Inc., priority 2003, dated 2014).
# pIC50: −log10 of the molar value.
# Columns and labels:
# A549 cells = assay: in vitro antiproliferation assay, A549 (lung); assay type: cell-based
# In short: (§1)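 Standard in vitro antiproliferation assays on tumour cell lines, including A549 and H1299 (both lung); IC50 values determined.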
# H1299 cells = assay: in vitro antiproliferation assay, H1299 (lung); assay type: cell-based
# In short: as §1
# [1] = IC50 class against A549 (lung) tumor cells
# [2] = IC50 class against H1299 (lung) tumor cells
# [3] = Homo sapiens, IC50 class against A549 (lung) tumor cells
# [4] = Homo sapiens, NCI-H1299, IC50 class against H1299 (lung) tumor cells
SMILES,pIC50 (A549 cells; A549 (lung) cells),pIC50 (H1299 cells; H1299 (lung) cells),further results
C=CCNc1ncc(F)c(N(C)c2ccc3c(c2)OCCO3)n1 [compound 1043],–,–,pIC50 (A549 cells; [1]): ≥ 4.70; pIC50 (H1299 cells; [2]): ≥ 4.70
CNc1ncc(F)c(Nc2ccc3c(c2)OCCO3)n1 [compound 1044],–,–,pIC50 (A549 cells; [1]): < 4.70; pIC50 (H1299 cells; [2]): < 4.70
COc1ccc(Nc2ncc(F)c(Nc3ccc4c(c3)OCCO4)n2)c(C)c1 [compound 1046],–,–,pIC50 (A549 cells; [1]): ≥ 4.70; pIC50 (H1299 cells; [2]): ≥ 4.70
COc1ccc(C)c(Nc2ncc(F)c(Nc3ccc4c(c3)OCCO4)n2)c1 [compound 1047],–,–,pIC50 (A549 cells; [1]): ≥ 4.70; pIC50 (H1299 cells; [2]): ≥ 4.70
Cc1ccc(F)c(Nc2ncc(F)c(Nc3ccc4c(c3)OCCO4)n2)c1 [compound 1048],–,–,pIC50 (A549 cells; [1]): ≥ 4.70; pIC50 (H1299 cells; [2]): ≥ 4.70
COc1cc(Nc2ncc(F)c(Nc3ccc4c(c3)OCCO4)n2)c(OC)cc1Cl [compound 1049],–,–,pIC50 (A549 cells; [1]): ≥ 4.70; pIC50 (H1299 cells; [2]): ≥ 4.70
COc1c(C)cc(Nc2ncc(F)c(Nc3cccc(Nc4ncc[nH]4)c3)n2)cc1C [compound 1050],–,–,pIC50 (A549 cells; [3]): ≥ 4.70; pIC50 (H1299 cells; [4]): ≥ 4.70
COc1ccc(Nc2ncc(F)c(Nc3cccc(Nc4ncc[nH]4)c3)n2)cc1F [compound 1051],–,–,pIC50 (A549 cells; [3]): ≥ 4.70; pIC50 (H1299 cells; [4]): ≥ 4.70
Cc1cc(C)cc(Nc2ncc(F)c(Nc3cccc(Nc4ncc[nH]4)c3)n2)c1 [compound 1052],–,–,pIC50 (A549 cells; [3]): ≥ 4.70; pIC50 (H1299 cells; [4]): ≥ 4.70
COc1cc(Nc2ncc(F)c(Nc3cccc(Nc4ncc[nH]4)c3)n2)cc(OC)c1 [compound 1053],–,–,pIC50 (A549 cells; [3]): ≥ 4.70; pIC50 (H1299 cells; [4]): ≥ 4.70
Fc1cnc(Nc2cccc(N3CCOCC3)c2)nc1Nc1cccc(Nc2ncc[nH]2)c1 [compound 1054],–,–,pIC50 (A549 cells; [3]): ≥ 4.70; pIC50 (H1299 cells; [4]): ≥ 4.70
CCOC(=O)N1CCN(c2cccc(Nc3ncc(F)c(Nc4cccc(Nc5ncc[nH]5)c4)n3)c2)CC1 [compound 1055],–,–,pIC50 (A549 cells; [3]): < 4.70; pIC50 (H1299 cells; [4]): < 4.70
CN1CCN(c2ccc(Nc3ncc(F)c(Nc4cccc(Nc5ncc[nH]5)c4)n3)cc2)CC1 [compound 1056],–,–,pIC50 (A549 cells; [3]): < 4.70; pIC50 (H1299 cells; [4]): < 4.70
COC(=O)N1CCN(c2ccc(Nc3ncc(F)c(Nc4cccc(Nc5ncc[nH]5)c4)n3)cc2)CC1 [compound 1057],–,–,pIC50 (A549 cells; [3]): < 4.70; pIC50 (H1299 cells; [4]): < 4.70
CC(=O)N1CCN(c2ccc(Nc3ncc(F)c(Nc4cccc(Nc5ncc[nH]5)c4)n3)cc2)CC1 [compound 1058],–,–,pIC50 (A549 cells; [3]): < 4.70; pIC50 (H1299 cells; [4]): < 4.70
CC(=O)N1CCN(c2cccc(Nc3ncc(F)c(Nc4cccc(Nc5ncc[nH]5)c4)n3)c2)CC1 [compound 1059],–,–,pIC50 (A549 cells; [3]): < 4.70; pIC50 (H1299 cells; [4]): < 4.70
COc1cccc(Nc2ncc(F)c(Nc3ccc4c(c3)NC(=O)CO4)n2)c1C [compound 1062],≥ 4.70,≥ 4.70,–
Cc1c(O)cccc1Nc1ncc(F)c(Nc2ccc3c(c2)NC(=O)CO3)n1 [compound 1063],≥ 4.70,≥ 4.70,–
Cc1c(O)cccc1Nc1ncc(F)c(Nc2ccc3c(c2)NC(=O)C(C)(C)O3)n1 [compound 1064],≥ 4.70,≥ 4.70,–
COc1cccc(Nc2ncc(F)c(Nc3ccc4c(c3)NC(=O)C(C)(C)O4)n2)c1C [compound 1065],≥ 4.70,< 4.70,–
CCCn1ncc2cc(Nc3ncc(F)c(Nc4ccc(OC)c(Cl)c4)n3)ccc21 [compound 1074],≥ 4.70,≥ 4.70,–

# More lines, main results first:
pIC50 (A549 cells; A549 (lung) cells),pIC50 (H1299 cells; H1299 (lung) cells),SMILES,further results
< 4.70,< 4.70,CCCn1ncc2cc(Nc3ncc(F)c(Nc4ccc(Cl)c(Cl)c4)n3)ccc21 [compound 1075],–
≥ 4.70,≥ 4.70,CCCn1ncc2cc(Nc3ncc(F)c(Nc4ccc5c(c4)NC(=O)C(C)(C)O5)n3)ccc21 [compound 1076],–
≥ 4.70,≥ 4.70,CCCn1ncc2ccc(Nc3ncc(F)c(Nc4ccc(F)c(OC)c4)n3)cc21 [compound 1077],–
≥ 4.70,≥ 4.70,CCCn1ncc2ccc(Nc3ncc(F)c(Nc4ccc5c(c4)NC(=O)C(C)(C)O5)n3)cc21 [compound 1080],–
≥ 4.70,< 4.70,CCCCn1ncc2cc(Nc3ncc(F)c(Nc4ccc(OC)c(Cl)c4)n3)ccc21 [compound 1082],–
≥ 4.70,≥ 4.70,CCCCn1ncc2cc(Nc3ncc(F)c(Nc4ccc(Cl)c(Cl)c4)n3)ccc21 [compound 1083],–
≥ 4.70,≥ 4.70,CCCCn1ncc2cc(Nc3ncc(F)c(Nc4ccc5c(c4)NC(=O)C(C)(C)O5)n3)ccc21 [compound 1084],–
≥ 4.70,≥ 4.70,CCCCn1ncc2cc(Nc3ncc(F)c(Nc4ccc(F)c(OC)c4)n3)ccc21 [compound 1085],–
≥ 4.70,≥ 4.70,CCCCn1ncc2ccc(Nc3ncc(F)c(Nc4ccc(OC)c(Cl)c4)n3)cc21 [compound 1086],–
≥ 4.70,≥ 4.70,CCCCn1ncc2ccc(Nc3ncc(F)c(Nc4ccc(Cl)c(Cl)c4)n3)cc21 [compound 1087],–
≥ 4.70,≥ 4.70,CCCCn1ncc2ccc(Nc3ncc(F)c(Nc4ccc5c(c4)NC(=O)C(C)(C)O5)n3)cc21 [compound 1088],–
≥ 4.70,≥ 4.70,CCCCn1ncc2ccc(Nc3ncc(F)c(Nc4ccc(F)c(OC)c4)n3)cc21 [compound 1089],–
≥ 4.70,≥ 4.70,COc1ccc(Nc2nc(Nc3ccc4c(cnn4CC4CCCCC4)c3)ncc2F)cc1Cl [compound 1090],–
